Results: EPA's ToxValDB 9.5 (doi:10.2903/j.efsa.2006.62r)
Values after ≈ are worked out from the molar mass of the structure shown.

Legend:
Aphidius rhopalosiphi = test: LR50; higher = less toxic; conditions: not reported; mortality
Daphnia magna = conditions: chronic/long-term; growth
Rattus norvegicus = conditions: acute; M; mortality
Lepomis macrochirus = conditions: acute; duration: 96 hours; mortality
Oryctolagus sp. = conditions: developmental; development
Apis mellifera = conditions: acute, mortality
Canidae = conditions: oral, Dog Other, neurology
Oncorhynchus mykiss = conditions: chronic/long-term; duration: 91 days; development
Folsomia candida = conditions: chronic/long-term; reproduction
Hypoaspis aculeifer = conditions: chronic/long-term; duration: 14 days; mortality
Bibionidae = conditions: chronic/long-term; other

SMILES | LR50 (Aphidius rhopalosiphi) | NOEC (Daphnia magna) | LD50 (Rattus norvegicus) | LC50 (Lepomis macrochirus) | NOAEL (Oryctolagus sp.) | LD50 (Apis mellifera; duration: 48 hours, dermal) | LD50 (Apis mellifera; oral, unspecified) | NOAEL (Canidae; acute) | NOAEL (Canidae; chronic, duration: 1 years) | LEL (Colinus virginianus; acute, oral, M) | NOEC (Colinus virginianus; reproduction developmental, M/F) | LEC (Colinus virginianus; short-term, oral, diet) | LC50 (Tagia sp.; acute, duration: 14 days, mortality) | NOEC (Tagia sp.; chronic/long-term, duration: 8 weeks, reproduction) | NOEC (Oncorhynchus mykiss) | NOEC (Folsomia candida) | NOEC (Hypoaspis aculeifer) | NOEC (Bibionidae)
CCOP(=O)(NC(C)C)Oc1ccc(SC)c(C)c1 (stereo not given) [Fenamiphos] | 0.175 g/ha | 0.00012 mg/L | 6 mg/kg | 9.3 ng/mL (≈ 0.0307 µM) | 0.3 mg/kg-day | 0.28 µg/piece | 0.45 µg/piece | 0.25 mg/kg-day | 0.083 mg/kg-day | 0.8 mg/kg-day | 0.2 mg/kg-day | 6 mg/kg-day | 888 mg/kg | < 6000 g/ha | 0.0038 mg/L | 0.313 mg/kg | 1.33 mg/kg | 
CCOP(=O)(NC(C)C)Oc1ccc(S(C)=O)c(C)c1 (stereo not given) [Fenamiphos sulfoxide] |  |  |  |  |  |  |  |  |  |  |  |  |  |  |  | 2 mg/kg |  | 0.058 mg/L
CCOP(=O)(NC(C)C)Oc1ccc(S(C)(=O)=O)c(C)c1 (stereo not given) [Fenamiphos sulfone] |  |  |  |  |  |  |  |  |  |  |  |  |  |  |  | 3.75 mg/kg |  | 
